Tests used:
[1] = target: T1, Myotonin-protein kinase (Homo sapiens) (UniProt Q09013); experiment: Selectivity interaction (KinomeScan (DiscoverX)) EUB0000229b DMPK; conditions: at 10 µM
T1 sequence (whole entry): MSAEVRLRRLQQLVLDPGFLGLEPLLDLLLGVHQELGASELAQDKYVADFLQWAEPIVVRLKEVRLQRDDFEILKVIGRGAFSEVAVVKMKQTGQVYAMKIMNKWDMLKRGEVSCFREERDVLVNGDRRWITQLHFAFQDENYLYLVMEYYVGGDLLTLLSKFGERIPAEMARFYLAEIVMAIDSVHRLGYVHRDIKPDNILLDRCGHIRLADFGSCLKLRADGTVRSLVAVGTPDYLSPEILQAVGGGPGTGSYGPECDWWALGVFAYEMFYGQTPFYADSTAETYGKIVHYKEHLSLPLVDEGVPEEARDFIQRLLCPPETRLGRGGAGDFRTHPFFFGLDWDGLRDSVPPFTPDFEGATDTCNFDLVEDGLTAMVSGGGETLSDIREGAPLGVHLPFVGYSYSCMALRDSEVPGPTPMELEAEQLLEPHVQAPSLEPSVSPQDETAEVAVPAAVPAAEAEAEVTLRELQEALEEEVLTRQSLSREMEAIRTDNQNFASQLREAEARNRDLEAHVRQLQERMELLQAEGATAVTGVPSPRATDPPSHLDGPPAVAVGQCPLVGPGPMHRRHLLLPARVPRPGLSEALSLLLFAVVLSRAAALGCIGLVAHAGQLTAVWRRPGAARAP

[2] = target: Cyclin-dependent kinase 2 (Homo sapiens, UniProt P24941); experiment: Selectivity interaction (ActivX KiNativ screen (kinase selectivity in THP-1 cell lysates)) EUB0000639a CDK2; type: subcellular; conditions: lysate, at 0.2 µM
Ephrin type-A receptor 4 = Ephrin type-A receptor 4 (Homo sapiens, UniProt P54764); experiment: Selectivity interaction (KinomeScan (DiscoverX)) EUB0000092b EPHA4; conditions: at 10 µM
[3] = target: Serine/threonine-protein kinase 32C (Homo sapiens) (UniProt Q86UX6); experiment: Selectivity interaction (Ambit KINOMEscan and KiNATiv profiling in Jurkat cells) EUB0000090b STK32C; type: cell-based; conditions: at 1 µM
[4] = target: Protein arginine N-methyltransferase 5 (Homo sapiens, UniProt O14744); experiment: Selectivity interaction (Methyltransferase screen (Scintillation proximity assays)) EUB0000255b PRMT5
[5] = target: T2, Serine/threonine-protein kinase LATS1 (Homo sapiens) (UniProt O95835); experiment: Selectivity interaction (KinomeScan (DiscoverX)) EUB0000618a LATS1; conditions: at 10 µM
T2 sequence (whole entry): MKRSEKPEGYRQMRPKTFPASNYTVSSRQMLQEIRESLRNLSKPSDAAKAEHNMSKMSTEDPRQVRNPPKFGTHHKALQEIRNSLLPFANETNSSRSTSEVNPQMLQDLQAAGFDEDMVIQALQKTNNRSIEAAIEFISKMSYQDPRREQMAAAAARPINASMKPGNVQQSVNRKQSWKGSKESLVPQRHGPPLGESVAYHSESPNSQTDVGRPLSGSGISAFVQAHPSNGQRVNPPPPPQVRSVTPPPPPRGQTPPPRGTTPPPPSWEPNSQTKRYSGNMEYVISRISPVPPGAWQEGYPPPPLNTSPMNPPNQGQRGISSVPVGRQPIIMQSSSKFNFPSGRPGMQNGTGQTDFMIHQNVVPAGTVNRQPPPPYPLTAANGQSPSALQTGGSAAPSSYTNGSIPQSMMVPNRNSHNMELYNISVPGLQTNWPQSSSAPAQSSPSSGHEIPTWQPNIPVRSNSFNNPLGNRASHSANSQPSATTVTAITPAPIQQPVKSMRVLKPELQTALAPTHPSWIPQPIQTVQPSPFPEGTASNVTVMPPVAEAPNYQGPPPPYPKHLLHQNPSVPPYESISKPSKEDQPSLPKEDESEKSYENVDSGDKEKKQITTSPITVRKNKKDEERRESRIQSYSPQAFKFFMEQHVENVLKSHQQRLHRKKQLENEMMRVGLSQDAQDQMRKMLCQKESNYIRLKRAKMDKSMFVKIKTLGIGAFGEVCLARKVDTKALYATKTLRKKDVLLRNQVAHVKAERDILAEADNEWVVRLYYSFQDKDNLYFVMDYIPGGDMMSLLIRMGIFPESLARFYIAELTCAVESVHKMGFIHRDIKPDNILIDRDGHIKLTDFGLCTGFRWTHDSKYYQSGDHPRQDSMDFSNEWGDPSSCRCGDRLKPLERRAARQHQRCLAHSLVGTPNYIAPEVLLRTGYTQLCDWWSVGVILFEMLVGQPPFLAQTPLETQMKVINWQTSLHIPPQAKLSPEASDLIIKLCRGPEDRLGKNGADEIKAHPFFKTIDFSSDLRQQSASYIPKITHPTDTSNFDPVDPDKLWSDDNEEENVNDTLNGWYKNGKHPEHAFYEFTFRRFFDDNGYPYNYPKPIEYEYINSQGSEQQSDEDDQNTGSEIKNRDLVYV

[6] = target: Serine/threonine-protein kinase Chk2 (Homo sapiens) (UniProt O96017); conditions: at 10 µM
[7] = target: Calcium/calmodulin-dependent protein kinase kinase 1 (Homo sapiens) (UniProt Q8N5S9); experiment: Selectivity interaction (KinomeScan (DiscoverX)) EUB0000655a CAMKK1; conditions: at 10 µM
[8] = target: T3, SNF-related serine/threonine-protein kinase (Homo sapiens) (UniProt Q9NRH2); experiment: Selectivity interaction (KinomeScan (DiscoverX)) EUB0000695a SNRK; conditions: at 100 nM
T3 sequence (whole entry): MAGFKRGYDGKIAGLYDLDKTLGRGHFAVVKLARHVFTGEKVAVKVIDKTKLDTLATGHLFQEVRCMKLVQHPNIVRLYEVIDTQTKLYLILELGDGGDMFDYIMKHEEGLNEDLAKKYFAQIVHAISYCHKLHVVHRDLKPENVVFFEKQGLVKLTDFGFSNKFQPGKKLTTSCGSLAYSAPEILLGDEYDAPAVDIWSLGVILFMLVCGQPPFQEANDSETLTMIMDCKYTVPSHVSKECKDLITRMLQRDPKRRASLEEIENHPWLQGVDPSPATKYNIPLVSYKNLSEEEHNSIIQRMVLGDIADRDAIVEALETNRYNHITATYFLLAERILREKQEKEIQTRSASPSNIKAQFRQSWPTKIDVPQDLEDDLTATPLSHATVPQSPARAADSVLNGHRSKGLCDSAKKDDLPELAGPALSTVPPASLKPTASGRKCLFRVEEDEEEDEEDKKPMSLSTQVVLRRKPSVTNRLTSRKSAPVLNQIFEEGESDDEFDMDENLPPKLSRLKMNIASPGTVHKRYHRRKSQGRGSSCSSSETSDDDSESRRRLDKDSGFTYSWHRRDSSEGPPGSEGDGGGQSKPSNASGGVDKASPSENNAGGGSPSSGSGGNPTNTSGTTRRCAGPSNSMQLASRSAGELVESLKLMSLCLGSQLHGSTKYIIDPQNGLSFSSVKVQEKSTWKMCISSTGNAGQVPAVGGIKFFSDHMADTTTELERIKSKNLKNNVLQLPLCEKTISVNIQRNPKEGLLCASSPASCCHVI

Chain of Protein arginine N-methyltransferase 5 (O14744 whole entry): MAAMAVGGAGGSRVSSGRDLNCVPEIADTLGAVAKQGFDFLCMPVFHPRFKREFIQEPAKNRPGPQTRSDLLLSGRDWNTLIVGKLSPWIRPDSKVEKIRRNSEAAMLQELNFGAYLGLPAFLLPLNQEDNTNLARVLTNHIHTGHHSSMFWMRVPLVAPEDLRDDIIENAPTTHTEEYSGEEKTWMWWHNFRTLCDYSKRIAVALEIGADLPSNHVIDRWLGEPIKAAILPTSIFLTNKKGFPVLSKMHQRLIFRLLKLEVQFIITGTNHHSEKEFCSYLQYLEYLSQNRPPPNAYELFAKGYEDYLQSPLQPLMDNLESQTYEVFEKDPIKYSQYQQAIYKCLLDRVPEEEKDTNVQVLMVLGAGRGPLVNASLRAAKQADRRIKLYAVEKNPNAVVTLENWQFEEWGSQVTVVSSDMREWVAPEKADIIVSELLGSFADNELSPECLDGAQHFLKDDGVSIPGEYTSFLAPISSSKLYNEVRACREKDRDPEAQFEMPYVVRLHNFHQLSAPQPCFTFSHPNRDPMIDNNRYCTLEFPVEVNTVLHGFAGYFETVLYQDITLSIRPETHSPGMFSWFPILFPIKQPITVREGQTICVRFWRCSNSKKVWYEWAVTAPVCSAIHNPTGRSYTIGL
Chain of Ephrin type-A receptor 4 (P54764 whole entry): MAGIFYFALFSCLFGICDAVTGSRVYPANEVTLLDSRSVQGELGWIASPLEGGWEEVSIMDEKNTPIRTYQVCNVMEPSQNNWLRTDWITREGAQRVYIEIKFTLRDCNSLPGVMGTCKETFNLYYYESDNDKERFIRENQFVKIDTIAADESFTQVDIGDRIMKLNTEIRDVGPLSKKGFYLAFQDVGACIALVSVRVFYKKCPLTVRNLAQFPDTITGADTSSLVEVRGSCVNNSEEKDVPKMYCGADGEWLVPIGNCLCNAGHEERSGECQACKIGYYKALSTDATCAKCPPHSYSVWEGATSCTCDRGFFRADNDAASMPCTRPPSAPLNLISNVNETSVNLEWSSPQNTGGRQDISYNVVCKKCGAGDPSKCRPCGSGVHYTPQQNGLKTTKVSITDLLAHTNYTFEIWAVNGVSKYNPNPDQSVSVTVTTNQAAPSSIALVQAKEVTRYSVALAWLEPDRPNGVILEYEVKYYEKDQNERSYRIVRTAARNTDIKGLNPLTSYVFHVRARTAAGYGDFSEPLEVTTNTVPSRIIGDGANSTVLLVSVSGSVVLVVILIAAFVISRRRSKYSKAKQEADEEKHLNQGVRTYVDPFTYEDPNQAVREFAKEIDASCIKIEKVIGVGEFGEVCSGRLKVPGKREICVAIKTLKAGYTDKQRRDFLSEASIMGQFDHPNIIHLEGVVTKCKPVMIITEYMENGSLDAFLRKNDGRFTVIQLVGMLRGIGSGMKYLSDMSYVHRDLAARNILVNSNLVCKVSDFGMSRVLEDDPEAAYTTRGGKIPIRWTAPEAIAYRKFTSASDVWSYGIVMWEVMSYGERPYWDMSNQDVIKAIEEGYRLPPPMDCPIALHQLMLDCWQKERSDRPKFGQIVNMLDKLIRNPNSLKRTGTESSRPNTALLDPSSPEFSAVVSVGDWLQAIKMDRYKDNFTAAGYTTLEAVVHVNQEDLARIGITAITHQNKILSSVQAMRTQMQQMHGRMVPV
Chain of Serine/threonine-protein kinase Chk2 (Homo sapiens) (O96017 whole entry): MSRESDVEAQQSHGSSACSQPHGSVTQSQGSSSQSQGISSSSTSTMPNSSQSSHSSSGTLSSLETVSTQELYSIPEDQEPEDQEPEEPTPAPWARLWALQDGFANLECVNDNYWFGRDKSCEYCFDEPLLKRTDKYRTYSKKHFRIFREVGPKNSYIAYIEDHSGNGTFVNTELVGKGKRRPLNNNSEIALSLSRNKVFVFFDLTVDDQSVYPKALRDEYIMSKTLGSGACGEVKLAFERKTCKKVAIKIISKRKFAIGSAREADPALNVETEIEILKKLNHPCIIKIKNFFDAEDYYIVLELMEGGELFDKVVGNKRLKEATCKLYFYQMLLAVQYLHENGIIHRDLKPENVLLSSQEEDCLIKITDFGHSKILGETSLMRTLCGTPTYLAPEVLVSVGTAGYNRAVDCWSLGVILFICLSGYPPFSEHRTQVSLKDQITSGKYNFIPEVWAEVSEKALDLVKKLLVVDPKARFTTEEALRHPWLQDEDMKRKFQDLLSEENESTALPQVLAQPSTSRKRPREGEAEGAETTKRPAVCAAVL
Chain of Serine/threonine-protein kinase 32C (Homo sapiens) (Q86UX6 whole entry): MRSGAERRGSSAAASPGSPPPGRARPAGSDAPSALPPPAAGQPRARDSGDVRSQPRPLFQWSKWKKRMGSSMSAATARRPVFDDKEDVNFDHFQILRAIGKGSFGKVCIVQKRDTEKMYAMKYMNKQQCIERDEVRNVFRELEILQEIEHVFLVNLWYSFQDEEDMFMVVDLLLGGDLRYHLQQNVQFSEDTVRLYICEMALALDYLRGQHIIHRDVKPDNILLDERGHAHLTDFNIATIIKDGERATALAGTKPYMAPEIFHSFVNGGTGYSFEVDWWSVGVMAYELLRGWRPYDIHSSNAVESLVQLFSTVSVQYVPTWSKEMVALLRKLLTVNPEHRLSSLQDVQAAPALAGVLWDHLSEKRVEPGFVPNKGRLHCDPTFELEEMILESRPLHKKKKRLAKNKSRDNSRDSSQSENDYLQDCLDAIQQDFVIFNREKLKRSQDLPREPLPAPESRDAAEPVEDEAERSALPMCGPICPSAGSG
Chain of Calcium/calmodulin-dependent protein kinase kinase 1 (Homo sapiens) (Q8N5S9 whole entry, looked up): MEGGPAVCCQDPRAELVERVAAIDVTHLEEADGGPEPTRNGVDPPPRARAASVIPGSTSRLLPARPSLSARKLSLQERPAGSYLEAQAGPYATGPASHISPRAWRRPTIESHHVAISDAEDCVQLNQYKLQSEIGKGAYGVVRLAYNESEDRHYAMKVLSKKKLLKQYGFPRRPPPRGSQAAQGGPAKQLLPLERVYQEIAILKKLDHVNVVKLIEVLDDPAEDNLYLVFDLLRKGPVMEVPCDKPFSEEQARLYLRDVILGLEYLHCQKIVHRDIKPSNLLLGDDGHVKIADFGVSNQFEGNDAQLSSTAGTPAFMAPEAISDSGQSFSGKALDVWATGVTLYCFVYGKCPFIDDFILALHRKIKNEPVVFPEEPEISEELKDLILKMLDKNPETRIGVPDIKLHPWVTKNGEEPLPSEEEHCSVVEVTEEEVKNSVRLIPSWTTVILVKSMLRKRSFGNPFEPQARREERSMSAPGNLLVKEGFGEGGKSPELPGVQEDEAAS

**Q.** How did the % binding [1] turn out when `COc1cc(N(C)c2ccnc3ccc(C(F)(F)F)cc23)cc(OC)c1OC` was run?
**A.** Its % binding is 87%.

**Q.** Which % of inhibition [2] does the source give for `CC[C@@H]1[C@H](F)C(=O)N[C@@H]1COc1nccc2cc(C(N)=O)c(OC)cc12` [ZIMLOVISERTIB] here?
**A.** Its % of inhibition is -1%.

**Q.** For `CCC(=O)N1CCN(c2ccc(-n3c(=O)ccc4cnc5ccc(-c6cnc7ccccc7c6)cc5c43)cc2C(F)(F)F)CC1`, which % of control (Ephrin type-A receptor 4) is on record?
**A.** The % of control was 90%.

**Q.** `CN(C)C/C=C/C(=O)Nc1ccc(C(=O)N2CCCC(Nc3ncc(Cl)c(-c4c[nH]c5ccccc45)n3)C2)cc1` (stereo not given) was tested. Which % of control [3] did it give?
**A.** The % of control was 71%.

**Q.** With `COCCN1CCC(c2cc(CN(C)C(=O)c3cccc(Oc4ccccc4)c3)ccn2)CC1` as the compound, how does the % activity ([4]; at 1 µM) read?
**A.** Its % activity is > 95%.

**Q.** And the % activity ([4]; at 10 µM)?
**A.** Its % activity is > 90%.

**Q.** For `O[C@H]1CC[C@H](Nc2ncc3nc(Nc4c(F)cc(F)cc4F)n([C@H]4CCOC4)c3n2)CC1`, which % of control [5] is on record?
**A.** The % of control was 100%.

**Q.** `Cc1cc([C@@H](C)Nc2ccccc2C(=O)O)c2nc(N3CCOCC3)cc(=O)n2c1` [AZD-6482] was tested. Which % of control [6] did it give?
**A.** The % of control was 100%.

**Q.** Which % of control [7] does the source give for `CN(C)CCOc1ccc(-c2nc(-c3ccncc3)c(-c3ccc4c(c3)CC/C4=N\O)[nH]2)cc1` here?
**A.** Its % of control is 99%.

**Q.** Which % of control [8] does the source give for `Cc1cc(F)c(C(=O)Nc2cccc(-c3nncn3C(C)C)n2)cc1-n1cnc(C2CC2)c1` here?
**A.** The % of control was 97%.

From ChEMBL document CHEMBL5465560, “Selectivity Literature for EUbOPEN Chemogenomic Library” (2024)
